Results as given in patent US8435980B2 (AbbVie Inc., priority 2009, dated 2013).

Biological target: T1, Cdc7 (BEV coexpressed huCDC7/DBF4) (Homo sapiens, UniProt O00311)
T1 construct: made in house; host or cells: BEV (baculovirus expression vector) co-expression; insect cells are implied but no cell line is named
Assay: Cdc7 enzyme inhibition assay ([33P]ATP, biotinylated peptide substrate, FlashPlate)
Type: biochemical
Settings: Table 3; enzyme inhibition data (Ki)
Procedure: Cdc7 (BEV coexpressed huCDC7/DBF4) is prepared internally. Cdc7 assays are conducted as follows with final concentrations as listed. […] Reactions are quenched after 1 hr by the addition of 90 μL stop buffer (50 mM EDTA, 2M NaCl). […] (Ki) for exemplary compounds.

T1 sequence (O00311 whole entry): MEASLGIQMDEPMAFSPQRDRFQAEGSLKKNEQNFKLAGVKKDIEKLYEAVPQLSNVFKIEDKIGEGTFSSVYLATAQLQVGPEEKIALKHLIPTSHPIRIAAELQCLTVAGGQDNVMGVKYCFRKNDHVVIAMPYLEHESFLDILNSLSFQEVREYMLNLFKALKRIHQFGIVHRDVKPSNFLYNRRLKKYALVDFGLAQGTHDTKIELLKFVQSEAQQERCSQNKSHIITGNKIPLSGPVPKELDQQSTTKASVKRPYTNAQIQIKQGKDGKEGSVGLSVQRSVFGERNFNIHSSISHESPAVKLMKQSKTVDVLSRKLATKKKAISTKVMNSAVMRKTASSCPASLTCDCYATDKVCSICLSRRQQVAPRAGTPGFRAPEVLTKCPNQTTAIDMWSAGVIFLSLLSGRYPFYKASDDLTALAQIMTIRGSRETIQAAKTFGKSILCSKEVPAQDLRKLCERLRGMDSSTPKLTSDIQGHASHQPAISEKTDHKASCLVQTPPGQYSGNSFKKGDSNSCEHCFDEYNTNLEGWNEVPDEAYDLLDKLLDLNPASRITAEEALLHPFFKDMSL
T1 sequence (Q9UBU7 whole entry partner): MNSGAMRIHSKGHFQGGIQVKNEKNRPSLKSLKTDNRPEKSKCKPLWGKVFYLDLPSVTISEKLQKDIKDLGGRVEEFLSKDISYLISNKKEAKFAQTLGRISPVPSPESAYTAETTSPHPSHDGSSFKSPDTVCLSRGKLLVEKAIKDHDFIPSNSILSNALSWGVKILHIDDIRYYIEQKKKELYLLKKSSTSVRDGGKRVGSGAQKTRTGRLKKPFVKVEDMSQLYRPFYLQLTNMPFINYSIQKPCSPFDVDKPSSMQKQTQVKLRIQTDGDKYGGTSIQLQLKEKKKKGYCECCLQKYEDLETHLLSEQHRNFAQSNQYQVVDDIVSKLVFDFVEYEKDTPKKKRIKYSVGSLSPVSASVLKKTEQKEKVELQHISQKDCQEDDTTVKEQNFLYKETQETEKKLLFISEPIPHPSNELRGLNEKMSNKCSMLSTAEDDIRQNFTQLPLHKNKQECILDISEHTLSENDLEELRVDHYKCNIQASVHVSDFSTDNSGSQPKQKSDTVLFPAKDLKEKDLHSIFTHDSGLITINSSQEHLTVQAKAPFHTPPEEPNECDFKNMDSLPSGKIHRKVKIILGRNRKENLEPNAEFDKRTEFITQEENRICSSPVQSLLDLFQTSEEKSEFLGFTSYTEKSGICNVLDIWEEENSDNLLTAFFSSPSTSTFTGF

SMILES	Ki [nM]
O=C1CC[C@@H](C(=O)N[C@H]2CC[C@H](Nc3cc(-c4c[nH]c5ncccc45)cc(Cl)n3)CC2)N1 [Example 338, N-(trans-4-{[6-chloro-4-(1H-pyrrolo[2,3-b]pyridin-3-yl)pyridin-2-yl]amino}cyclohexyl)-5-oxo-L-prolinamide]	< 10
CN1CCCCC1C(=O)NC1CCCC(Nc2cc(-c3c[nH]c4ncccc34)cc(Cl)n2)C1 (stereo not shown) [Example 339, N-(3-{[6-chloro-4-(1H-pyrrolo[2,3-b]pyridin-3-yl)pyridin-2-yl]amino}cyclohexyl)-1-methylpiperidine-2-carboxamide]	< 10
O=C(CN1CCCCCC1)NC1CCCC(Nc2cc(-c3c[nH]c4ncccc34)cc(Cl)n2)C1 (stereo not shown) [Example 340, 2-(azepan-1-yl)-N-(3-{[6-chloro-4-(1H-pyrrolo[2,3-b]pyridin-3-yl)pyridin-2-yl]amino}cyclohexyl)acetamide]	< 10
O=C(N[C@H]1CC[C@H](Nc2cc(-c3c[nH]c4ncccc34)cc(Cl)n2)CC1)C1CCCC1 [Example 341, N-(trans-4-{[6-chloro-4-(1H-pyrrolo[2,3-b]pyridin-3-yl)pyridin-2-yl]amino}cyclohexyl)cyclopentanecarboxamide]	< 10
O=C(NC1CCCC(Nc2cc(-c3c[nH]c4ncccc34)cc(Cl)n2)C1)C1CCNC1 (stereo not shown) [Example 343, N-(3-{[6-chloro-4-(1H-pyrrolo[2,3-b]pyridin-3-yl)pyridin-2-yl]amino}cyclohexyl)pyrrolidine-3-carboxamide]	< 10
O=C(NC1CCCC(Nc2cc(-c3c[nH]c4ncccc34)cc(Cl)n2)C1)C1CCNCC1 (stereo not shown) [Example 344, N-(3-{[6-chloro-4-(1H-pyrrolo[2,3-b]pyridin-3-yl)pyridin-2-yl]amino}cyclohexyl)piperidine-4-carboxamide]	< 10
O=C(NC1CCCC(Nc2cc(-c3c[nH]c4ncccc34)cc(Cl)n2)C1)C1CCCNC1 (stereo not shown) [Example 345, N-(3-{[6-chloro-4-(1H-pyrrolo[2,3-b]pyridin-3-yl)pyridin-2-yl]amino}cyclohexyl)piperidine-3-carboxamide]	< 10
CN1CCC(C(=O)NC2CCCC(Nc3cc(-c4c[nH]c5ncccc45)cc(Cl)n3)C2)C1 (stereo not shown) [Example 346, N-(3-{[6-chloro-4-(1H-pyrrolo[2,3-b]pyridin-3-yl)pyridin-2-yl]amino}cyclohexyl)-1-methylpyrrolidine-3-carboxamide]	< 10
CN1CCC(C(=O)NC2CCCC(Nc3cc(-c4c[nH]c5ncccc45)cc(Cl)n3)C2)CC1 (stereo not shown) [Example 347, N-(3-{[6-chloro-4-(1H-pyrrolo[2,3-b]pyridin-3-yl)pyridin-2-yl]amino}cyclohexyl)-1-methylpiperidine-4-carboxamide]	< 10
CN1CCCC(C(=O)NC2CCCC(Nc3cc(-c4c[nH]c5ncccc45)cc(Cl)n3)C2)C1 (stereo not shown) [Example 348, N-(3-{[6-chloro-4-(1H-pyrrolo[2,3-b]pyridin-3-yl)pyridin-2-yl]amino}cyclohexyl)-1-methylpiperidine-3-carboxamide]	10 to 100
CN(C)C1(C(=O)NC2CCCC(Nc3cc(-c4c[nH]c5ncccc45)cc(Cl)n3)C2)CCC1 (stereo not shown) [Example 349, N-(3-{[6-chloro-4-(1H-pyrrolo[2,3-b]pyridin-3-yl)pyridin-2-yl]amino}cyclohexyl)-1-(dimethylamino)cyclobutanecarboxamide]	10 to 100
C[C@@H](C(=O)NC1CCCC(Nc2cc(-c3c[nH]c4ncccc34)cc(Cl)n2)C1)N(C)C (stereo partly drawn) [Example 350, N-(3-{[6-chloro-4-(1H-pyrrolo[2,3-b]pyridin-3-yl)pyridin-2-yl]amino}cyclohexyl)-N~2~,N~2~-dimethyl-L-alaninamide]	< 10
O=C(CNCCO)N[C@H]1CC[C@H](Nc2cc(-c3c[nH]c4ncccc34)cc(Cl)n2)CC1 [Example 352, N-(trans-4-{[6-chloro-4-(1H-pyrrolo[2,3-b]pyridin-3-yl)pyridin-2-yl]amino}cyclohexyl)-N~2~-(2-hydroxyethyl)glycinamide]	< 10
O=C1c2ccccc2C(=O)N1CCS(=O)(=O)NC1CCCC(Nc2cc(-c3c[nH]c4ncccc34)cc(Cl)n2)C1 (stereo not shown) [Example 353, N-(3-{[6-chloro-4-(1H-pyrrolo[2,3-b]pyridin-3-yl)pyridin-2-yl]amino}cyclohexyl)-2-(1,3-dioxo-1,3-dihydro-2H-isoindol-2-yl)ethanesulfonamide]	< 10
CC(C)(C)CNCC(=O)N[C@H]1CC[C@H](Nc2cc(-c3c[nH]c4ncccc34)cc(Cl)n2)CC1 [Example 355, N-(trans-4-{[6-chloro-4-(1H-pyrrolo[2,3-b]pyridin-3-yl)pyridin-2-yl]amino}cyclohexyl)-N~2~-(2,2-dimethylpropyl)glycinamide]	< 10
CCN(CCO)CC(=O)N[C@H]1CC[C@H](Nc2cc(-c3c[nH]c4ncccc34)cc(Cl)n2)CC1 [Example 356, N-(trans-4-{[6-chloro-4-(1H-pyrrolo[2,3-b]pyridin-3-yl)pyridin-2-yl]amino}cyclohexyl)-N~2~-ethyl-N~2~-(2-hydroxyethyl)glycinamide]	< 10

SMILES	Ki [nM]
Clc1cc(-c2c[nH]c3ncccc23)cc(N[C@H]2CC[C@H](NC3CCNCC3)CC2)n1 [Example 357, trans-N-[6-chloro-4-(1H-pyrrolo[2,3-b]pyridin-3-yl)pyridin-2-yl]-N′-(piperidin-4-yl)cyclohexane-1,4-diamine]	< 10
O=C1c2ccccc2C(=O)N1CCS(=O)(=O)N[C@H]1CC[C@H](Nc2cc(-c3c[nH]c4ncccc34)cc(Cl)n2)CC1 [Example 358, N-(trans-4-{[6-chloro-4-(1H-pyrrolo[2,3-b]pyridin-3-yl)pyridin-2-yl]amino}cyclohexyl)-2-(1,3-dioxo-1,3-dihydro-2H-isoindol-2-yl)ethanesulfonamide]	< 10
Clc1cc(-c2c[nH]c3ncccc23)cc(NC2CCC(CC3CCC(NC4CCC4)CC3)CC2)n1 (stereo not shown) [Example 359, 6-chloro-N-(4-{[4-(cyclobutylamino)cyclohexyl]methyl}cyclohexyl)-4-(1H-pyrrolo[2,3-b]pyridin-3-yl)pyridin-2-amine]	< 10
O=C(CN1CCCCC1)Nc1cc(-c2c[nH]c3ncccc23)cc(Cl)n1 [Example 360, N-[6-chloro-4-(1H-pyrrolo[2,3-b]pyridin-3-yl)pyridin-2-yl]-2-(piperidin-1-yl)acetamide]	< 10
Clc1cc(-c2c[nH]c3ncccc23)cc(N[C@H]2CC[C@H](NC3CCN(C4CCC4)CC3)CC2)n1 [Example 361, trans-N-[6-chloro-4-(1H-pyrrolo[2,3-b]pyridin-3-yl)pyridin-2-yl]-N′-(1-cyclobutylpiperidin-4-yl)cyclohexane-1,4-diamine]	< 10
CC(C)(C)OC(=O)N1CCC(C2CCC(Nc3cc(-c4c[nH]c5ncccc45)cc(Cl)n3)CC2)CC1 (stereo not shown) [Example 362, tert-butyl 4-(4-{[6-chloro-4-(1H-pyrrolo[2,3-b]pyridin-3-yl)pyridin-2-yl]amino}cyclohexyl)piperidine-1-carboxylate]	10 to 100
CC(C)(C)OC(=O)N1CC(C(=O)N[C@H]2CC[C@H](Nc3cc(-c4c[nH]c5ncccc45)cc(Cl)n3)CC2)C1 [Example 364, tert-butyl 3-[(trans-4-{[6-chloro-4-(1H-pyrrolo[2,3-b]pyridin-3-yl)pyridin-2-yl]amino}cyclohexyl)carbamoyl]azetidine-1-carboxylate]	< 10
O=C(C1CC1)N1CCC(C2CCC(Nc3cc(-c4c[nH]c5ncccc45)cc(Cl)n3)CC2)CC1 (stereo not shown) [Example 366, [4-(4-{[6-chloro-4-(1H-pyrrolo[2,3-b]pyridin-3-yl)pyridin-2-yl]amino}cyclohexyl)piperidin-1-yl](cyclopropyl)methanone]	< 10
O=C(N[C@H]1CC[C@H](Nc2cc(-c3c[nH]c4ncccc34)cc(Cl)n2)CC1)C1CCN(CCO)CC1 [Example 367, N-(trans-4-{[6-chloro-4-(1H-pyrrolo[2,3-b]pyridin-3-yl)pyridin-2-yl]amino}cyclohexyl)-1-(2-hydroxyethyl)piperidine-4-carboxamide]	< 10
O=C(NC1CCC(CC2CCC(Nc3cc(-c4c[nH]c5ncccc45)cc(Cl)n3)CC2)CC1)C1CC1 (stereo not shown) [Example 368, N-{4-[(4-{[6-chloro-4-(1H-pyrrolo[2,3-b]pyridin-3-yl)pyridin-2-yl]amino}cyclohexyl)methyl]cyclohexyl} cyclopropanecarboxamide]	< 10
CC(=O)N1CCC(NC2CCC(Nc3cc(-c4c[nH]c5ncccc45)cc(Cl)n3)CC2)CC1 (stereo not shown) [Example 369, 1-{4-[(4-{[6-chloro-4-(1H-pyrrolo[2,3-b]pyridin-3-yl)pyridin-2-yl]amino}cyclohexyl)amino]piperidin-1-yl}ethanone]	< 10
CS(=O)(=O)N1CCC(C2CCC(N(c3cc(-c4c[nH]c5ncccc45)cc(Cl)n3)S(C)(=O)=O)CC2)CC1 (stereo not shown) [Example 370, N-[6-chloro-4-(1H-pyrrolo[2,3-b]pyridin-3-yl)pyridin-2-yl]-N-{4-[1-(methylsulfonyl)piperidin-4-yl]cyclohexyl}methanesulfonamide]	10 to 100
CN1CCCC(C2CCC(Nc3cc(-c4c[nH]c5ncccc45)cc(Cl)n3)CC2)C1 (stereo not shown) [Example 371, 6-chloro-N-[4-(1-methylpiperidin-3-yl)cyclohexyl]-4-(1H-pyrrolo[2,3-b]pyridin-3-yl)pyridin-2-amine]	< 10
CN1CCCC(C2CCC(N(C)c3cc(-c4c[nH]c5ncccc45)cc(Cl)n3)CC2)C1 (stereo not shown) [Example 372, 6-chloro-N-methyl-N-[4-(1-methylpiperidin-3-yl)cyclohexyl]-4-(1H-pyrrolo[2,3-b]pyridin-3-yl)pyridin-2-amine]	< 10
O=C(NCCS(=O)(=O)N[C@H]1CC[C@H](Nc2cc(-c3c[nH]c4ncccc34)cc(Cl)n2)CC1)C1CC1 [Example 373, N-{2-[(trans-4-{[6-chloro-4-(1H-pyrrolo[2,3-b]pyridin-3-yl)pyridin-2-yl]amino}cyclohexyl)sulfamoyl]ethyl} cyclopropanecarboxamide]	< 10
